The source of these data is patent US20230174660A1, “USE OF A MULTIMERIC ANTI-DR5 BINDING MOLECULE IN COMBINATION WITH A CANCER THERAPY FOR TREATING CANCER” (IGM Biosciences, Inc., priority 2020, published 2023).

Where two headings read alike, the source gives them in different places.

One data set has as its system OCI-LY7. As to the kind of experiment: Cell Titer Glo viability, Mab A + chemotherapeutic/targeted agent (Example 9). As to conditions: combination with Mab A; OCI-LY7 (NHL); 72 hours.
The next data set has as its system WSU-DLCL2. Described as above. In kind it is cell-based. As to conditions: 72 hours; for Average Bliss score: combination with Mab A, WSU-DLCL2 (NHL).
The test system of the next data set is Toledo. The data set is described as above. It counts as cell-based. As to conditions: combination with Mab A; Toledo (NHL); 72 hours.
Another data set deals with DOHH-2. The data set is described as above. As to conditions: combination with Mab A; DOHH-2 (NHL); 72 hours.
The test system of data set [1] is U-937.
A further data set concerns Karpas-422. Nature of the data set: Cell Titer Glo viability, Mab A + chemotherapeutic/targeted agent (Example 9). It counts as cell-based. As to conditions: combination with Mab A; Karpas-422 (NHL); 72 hours. (In general: ATP-based viability assays read luminescence as a measure of living cells.)
Data set [2] deals with U-937. The description is as above. As to conditions: 72 hours; for Average Bliss score: combination with Mab A, U-937 (NHL).
Data set [3] concerns primary human hepatocytes. The data set is described as above. It counts as cell-based. As to conditions: 72 hours.
A further data set has as its system NCIH508. As to the kind of experiment: Cell Titer Glo viability, Mab A + chemotherapeutic agent, Bliss synergy (Example 1). It counts as cell-based. As to conditions: combination with anti-DR5 IgM Mab A; NCIH508, Colorectal Caecum Adenocarcinoma; 72 hours.
In another data set the test system is PANC1. The data set is described as above. It counts as cell-based. As to conditions: combination with anti-DR5 IgM Mab A; PANC1, Pancreas Ductal Adenocarcinoma, exocrine; 72 hours.
The next data set relates to NCIH460. Described as above. It counts as cell-based. As to conditions: combination with anti-DR5 IgM Mab A; NCIH460, Lung, Non-small cell; 72 hours.
A further data set relates to LOUNH91. The description is as above. In kind it is cell-based. As to conditions: combination with anti-DR5 IgM Mab A; LOUNH91, Lung Squamous cell carcinoma; 72 hours.
A further data set concerns HT1080. The data set is described as above. As to conditions: combination with anti-DR5 IgM Mab A; HT1080, Connective tissue Fibrosarcoma; 72 hours. In kind it is cell-based.
For a further data set, the system named is SNU5. The data set is described as above. In kind it is cell-based. As to conditions: combination with anti-DR5 IgM Mab A; SNU5, Gastric Adenocarcinoma; 72 hours.
In a further data set the test system is HCT15. Described as above. In kind it is cell-based. As to conditions: combination with anti-DR5 IgM Mab A; HCT15, Colorectal adenocarcinoma; 72 hours.
In the next data set the test system is NCIN87. Described as above. In kind it is cell-based. As to conditions: combination with anti-DR5 IgM Mab A; NCIN87, Gastric Adenocarcinoma, tubular; 72 hours.
Another data set relates to NCIH2228. The description is as above. In kind it is cell-based. As to conditions: combination with anti-DR5 IgM Mab A; NCIH2228, Lung, Non-small cell; 72 hours.
The next data set concerns NUGC4. The description is as above. It counts as cell-based. As to conditions: combination with anti-DR5 IgM Mab A; NUGC4, Gastric Adenocarcinoma; 72 hours.
The subject of another data set is HT55. Described as above. As to conditions: combination with anti-DR5 IgM Mab A; HT55, Colorectal Carcinoma; 72 hours. It counts as cell-based.
A further data set has as its system BXPC3. The data set is described as above. As to conditions: combination with anti-DR5 IgM Mab A; BXPC3, Pancreas adenocarcinoma; 72 hours. In kind it is cell-based.
The subject of a further data set is ASPC1. Described as above. In kind it is cell-based. As to conditions: combination with anti-DR5 IgM Mab A; ASPC1, Pancreas Ductal adenocarcinoma; 72 hours.
In data set [4] the test system is primary human hepatocytes. The description is as above. In kind it is cell-based. As to conditions: combination with anti-DR5 IgM Mab A, Liver, 72 hours.
For the next data set, the system named is Colo205 tumor cells. Nature of the data set: Colo205 subcutaneous tumor model in NCr nude mice (Examples 2-5, 14). It counts as in vivo. As to conditions: study termination on day 100; paclitaxel 25 mg/kg i.v. 5 doses, alone or with Mab A 5 mg/kg i.v. 7 doses.
A further data set deals with UMUC3. As to the kind of experiment: Cell Titer Glo viability, Mab A + chemotherapeutic agent, Bliss synergy (Example 1). In kind it is cell-based. As to conditions: combination with anti-DR5 IgM Mab A; UMUC3, Bladder Transitional Cell Carcinoma; 72 hours.
The next data set relates to SW1353. As to the kind of experiment: Cell Titer Glo viability, Mab A + SMAC mimetics (Example 13). It counts as cell-based. As to conditions: SMAC mimetic in combination with Mab A. The procedure:
(§1) Synergy was determined as described in earlier examples. The average Bliss synergy scores for combinations of Mab A and SMAC mimetic on the various tumor cell lines are shown in Table 15.

The subject of the next data set is SK-MEL-5. Described as above. As to conditions: SMAC mimetic in combination with Mab A. It counts as cell-based. The procedure: as §1
For a further data set, the system named is HT 1080. The data set is described as above. In kind it is cell-based. As to conditions: SMAC mimetic in combination with Mab A. The procedure: as §1
The next data set concerns EBC-1. The description is as above. In kind it is cell-based. As to conditions: SMAC mimetic in combination with Mab A. The method, then: as §1
A further data set has as its system HCT 116. Described as above. As to conditions: SMAC mimetic in combination with Mab A. It counts as cell-based. The method, then:
as §1

In the next data set the test system is OVCAR-4. The description is as above. In kind it is cell-based. As to conditions: SMAC mimetic in combination with Mab A. The method, then:
as §1

For the next data set, the system named is MOLM13. As to the kind of experiment: Cell Titer Glo viability, Mab A + chemotherapeutic agent, Bliss synergy (Example 1). In kind it is cell-based. As to conditions: combination with anti-DR5 IgM Mab A; MOLM13, Blood (Leukemia) Acute myelogenous leukemia; 72 hours.
The test system of another data set is MV411. The description is as above. It counts as cell-based. As to conditions: combination with anti-DR5 IgM Mab A; MV411, Blood (Leukemia) Acute myelogenous leukemia; 72 hours.
Data set [5] deals with DR5 agonist-resistant MDA-MB-231 cells. Nature of the data set: Cell Titer Glo viability, Mab A + SMAC mimetic on DR5 agonist-resistant tumor cells (Example 8). In kind it is cell-based.
A further data set relates to MDA-MB-231 tumor cells. Nature of the data set: Cell Titer Glo viability, Mab A + SMAC mimetic (Example 7). As to conditions: MDA-MB-231 cells; 72 hours.

Regarding `COc1ccccc1-c1nccc(COc2ccccc2C[C@H](Oc2ncnc3sc(-c4ccc(F)cc4)c(-c4ccc(OCCN5CCN(C)CC5)c(Cl)c4C)c23)C(=O)O)n1` (atropisomer, axis not shown) [MIK665, MIK665/S-64315], the “Average Bliss score” value turned out to be 3.5 in the data set with OCI-LY7; 16 in the data set on WSU-DLCL2; 6.7 in the data set on Toledo; 3.1 in the data set with DOHH-2; 3.7 in the data set on Karpas-422; 4.8 in the data set with U-937 [2]. The “single agent cytotoxicity (cell viability curves)” value (from here on “single agent cytotoxicity”) with WSU-DLCL2 (WSU-DLCL2 cells) and with U-937 [1] was “complete cytotoxicity” throughout. The “cytotoxicity in primary human hepatocytes” value in data set [3] was “causes cytotoxicity”.

Regarding `COc1cc([C@@H]2c3cc4c(cc3[C@@H](O[C@@H]3O[C@@H]5CO[C@@H](C)O[C@H]5[C@H](O)[C@H]3O)[C@H]3COC(=O)[C@H]23)OCO4)cc(OC)c1O` [etoposide, Etoposide], the “Average Bliss score” value was −0.99 with NCIH508; 10 in the data set on PANC1; 3.6 with NCIH460; 16 in the data set with LOUNH91; 3.6 in the data set with HT1080; 3.6 with SNU5. Besides, the “Average Bliss score” value in the data set with HCT15 is 15; with NCIN87 it was 17; in the data set with NCIH2228 it was 14; in the data set with NUGC4, −2.3; in the data set with HT55 it was 5.1; in the data set on BXPC3, 2.2. Moreover, in the data set with ASPC1, the “Average Bliss score” value stood at 5.2.

Turning to `CC(=O)O[C@H]1C(=O)[C@@]2(C)[C@H]([C@H](OC(=O)c3ccccc3)[C@]3(O)C[C@H](OC(=O)[C@H](O)[C@@H](NC(=O)c4ccccc4)c4ccccc4)C(C)=C1C3(C)C)[C@]1(OC(C)=O)CO[C@@H]1C[C@@H]2O` [paclitaxel, Paclitaxel], the “Average Bliss score” value was determined as 5.3 in data set [4]; 8.4 with NCIH508; 15 in the data set on PANC1; 4.7 with NCIH460; 9.7 with LOUNH91; 2.7 with HT1080. The “Average Bliss score” value amounted to 2.8 with SNU5; 7.6 with HCT15; 6.3 with UMUC3; 13 in the data set on NCIN87; 15 in the data set on NCIH2228; 7 with NUGC4. For the same compound, the “Average Bliss score” value with HT55 is 6.2; in the data set on BXPC3, 3.8; in the data set on ASPC1, 14. In the data set with Colo205 tumor cells, the “animals with no visible tumors (tumor-free)” value is given as 2 out of 10.

On to `CN[C@@H](C)C(=O)N[C@H]1CN(S(=O)(=O)c2cccc(S(=O)(=O)N3CC[C@H]4CC[C@@H](C(=O)NC(c5ccccc5)c5ccccc5)N4C(=O)[C@@H](NC(=O)[C@H](C)NC)C3)c2)CC[C@H]2CC[C@@H](C(=O)NC(c3ccccc3)c3ccccc3)N2C1=O` [APG-1387], for which the “Average Bliss score” value in the data set with SW1353 is listed as −3; in the data set on SK-MEL-5 it was 7; in the data set with HT 1080, 38; in the data set with EBC-1, 47; in the data set with HCT 116, 34; with OVCAR-4, 10.

With `C[C@@H]1CN(CC(=O)N2CC(C)(C)c3nc(CO)c(Cc4ccc(F)cc4)cc32)[C@@H](CN2CCOC[C@H]2C)CN1` [ASTX660], the “Average Bliss score” value with SW1353 is given as −2; in the data set on SK-MEL-5, 11; in the data set with HT 1080, 20; in the data set on EBC-1 it was 17; in the data set on HCT 116, 29; with OVCAR-4, 9.

Turning to `CC[C@]1(O)C[C@H]2CN(CCc3c([nH]c4ccccc34)[C@@](C(=O)OC)(c3cc4c(cc3OC)N(C=O)[C@H]3[C@@](O)(C(=O)OC)[C@H](OC(C)=O)[C@]5(CC)C=CCN6CC[C@]43[C@@H]65)C2)C1` [vincristine, Vincristine], in the data set with U-937 [2] (U-937 cells), the “single agent cytotoxicity” value is “strong cytotoxicity”.

In the case of `CN[C@@H](C)C(=O)N[C@H]1CN(C(=O)CC(C)C)CC[C@H]2CC[C@@H](C(=O)NC(c3ccccc3)c3ccccc3)N2C1=O` [Debio 1143], the “Average Bliss score” value in the data set on SW1353 is −1; in the data set on SK-MEL-5, 4; in the data set with HT 1080, 12; with EBC-1, 23; in the data set on HCT 116, 19; in the data set on OVCAR-4, 3.

Consider `COc1cccc2c1C(=O)c1c(O)c3c(c(O)c1C2=O)C[C@@](O)(C(=O)CO)C[C@@H]3O[C@H]1C[C@H](N)[C@H](O)[C@H](C)O1` [doxorubicin, Doxorubicin], for which the “Average Bliss score” value in data set [4] is recorded as 0.94; with NCIH508, 1.3; with MOLM13 it was 5.2; in the data set on PANC1 it was 7.3; with NCIH460, 4; in the data set with LOUNH91, 12. Further, the “Average Bliss score” value with HT1080 is listed as 1.5; with SNU5 it was 12; with HCT15, 10; in the data set with UMUC3 it was 8.8; in the data set on NCIN87, 12; in the data set on NCIH2228 it was 16. The “Average Bliss score” value with NUGC4 was 8.9; in the data set with MV411, 7.1; in the data set on HT55, 1.6; with BXPC3, 1.5; in the data set on ASPC1 it was −0.63.

For the compound `CC[C@H](Nc1ncnc2nc[nH]c12)c1nc2cccc(F)c2c(=O)n1-c1ccccc1` [idelalisib, Idelalisib], the “Average Bliss score” value is reported as −1.8 in the data set on OCI-LY7; −7.4 in the data set on WSU-DLCL2; −1.6 with Toledo; −0.89 in the data set on DOHH-2; −3.2 in the data set on Karpas-422; 2.7 in the data set with U-937 [2].

Take `CN[C@@H](C)C(=O)N[C@H](C(=O)N1CCC[C@H]1C(=O)Nc1snnc1-c1ccccc1)C1CCCCC1` [GDC-0152, GDC-0152/RG-7419]: the “single agent cytotoxicity” value (in data set [5]; in the data set on MDA-MB-231 tumor cells) was “little to no cytotoxicity” in each case.
